Measured values published in the Kinase Knowledgebase extract (Sharma et al. 2016).

molecular target: CDK2 (UniProt P24941); test: Enzyme Assay

IC50, < 750 µM:
CC(C)(C)C1CCC(NC(=O)c2n[nH]cc2NC(=O)c2cc(F)cc(F)c2)CC1 (stereo unspecified)
O=C(Nc1c[nH]nc1C(=O)NC1CCNCC1)c1ccc(F)cc1
O=C(N[C@H]1CC[C@H](O)CC1)c1n[nH]cc1NC(=O)N1CCOCC1
CC(C)(C)C1CCC(NC(=O)c2n[nH]cc2NC(=O)c2ccc(F)cc2)CC1 (stereo unspecified)
CC(C)(C)C1CCC(NC(=O)c2n[nH]cc2NC(=O)c2ccc(OC(F)F)cc2)CC1 (stereo unspecified)
CC(C)(C)C1CCC(NC(=O)c2n[nH]cc2NC(=O)c2ccc(Cl)cc2)CC1 (stereo unspecified)

IC50, < 20 µM:
CC(C)(C)OC(=O)N1CCC(NC(=O)c2n[nH]cc2NC(=O)c2ccc(F)cc2)CC1
O=C(Nc1c[nH]nc1C(=O)NC1CCNCC1)c1ccccc1OC(F)F
O=C(Nc1c[nH]nc1C(=O)NC1CCNCC1)c1ccc(Cl)cc1
O=C(N[C@H]1CC[C@H](N2CCOCC2)CC1)c1n[nH]cc1NC(=O)c1c(F)cccc1F
CC(C)(C)N1CCC(NC(=O)c2n[nH]cc2NC(=O)c2c(F)cccc2F)CC1
CN1CCC(NC(=O)c2n[nH]cc2NC(=O)c2ccccc2Cl)CC1
O=C(NC1CCN(CC2CCOC2)CC1)c1n[nH]cc1NC(=O)c1c(F)cccc1F (stereo unspecified)
CN1CCC(C(=O)Nc2c[nH]nc2C(=O)NCC2CC2)CC1
O=C(N[C@@H]1CCNC1)c1n[nH]cc1NC(=O)c1c(F)cccc1F
CS(=O)(=O)NC[C@H]1CC[C@H](NC(=O)c2n[nH]cc2NC(=O)c2c(F)cccc2F)CC1
COc1cccc(F)c1C(=O)Nc1c[nH]nc1C(=O)NC1CCNCC1
O=C(N[C@H]1CCCNC1)c1n[nH]cc1NC(=O)c1c(Cl)cccc1Cl
COc1cscc1C(=O)Nc1c[nH]nc1C(=O)N[C@H]1CC[C@H](O)CC1
O=C(NCC1CCNCC1)c1n[nH]cc1NC(=O)c1c(F)cccc1F
O=C(N[C@H]1CC[C@H](O)CC1)c1n[nH]cc1NC(=O)c1c(F)cccc1F
O=C(Nc1c[nH]nc1C(=O)N[C@H]1CC[C@H](O)CC1)Nc1c(F)cccc1F
O=C(N[C@H]1CC[C@H](O)CC1)c1n[nH]cc1NC(=O)c1c(F)cccc1Cl
O=C(NC1CCNCC1)c1n[nH]cc1NC(=O)c1c(Cl)cncc1Cl
O=C(NC1CCNCC1)c1n[nH]cc1NC(=O)c1c(F)cccc1Cl
O=C(Nc1c[nH]nc1C(=O)NC1CCNCC1)c1ccccc1OCc1ccccc1
CN(C)[C@H]1CC[C@H](NC(=O)c2n[nH]cc2NC(=O)c2c(F)cccc2F)CC1
NC[C@H]1CC[C@H](NC(=O)c2n[nH]cc2NC(=O)c2c(F)cccc2F)CC1
C[N+]1([O-])CCC(NC(=O)c2n[nH]cc2NC(=O)c2c(F)cccc2F)CC1 (stereo unspecified)
O=C(N[C@H]1CCCNC1)c1n[nH]cc1NC(=O)c1c(F)cccc1F
CC(C)(C)NC(=O)Nc1c[nH]nc1C(=O)NCC1CC1
O=C(N[C@H]1CC[C@@H](NC2CCOCC2)CC1)c1n[nH]cc1NC(=O)c1c(F)cccc1F
CC1CCC(NC(=O)c2n[nH]cc2NC(=O)c2c(F)cccc2F)CC1 (stereo unspecified)
CN1CCN([C@H]2CC[C@@H](NC(=O)c3n[nH]cc3NC(=O)c3c(F)cccc3F)CC2)CC1
COc1cccc(F)c1C(=O)Nc1c[nH]nc1C(=O)N[C@H]1CC[C@H](O)CC1
CN1CCC(NC(=O)c2n[nH]cc2NC(=O)c2c(F)cccc2Cl)CC1
CN1CCC(NC(=O)c2n[nH]cc2NC(=O)c2c(Cl)cccc2Cl)CC1
CC(C)(C)OC(=O)N1CCC(NC(=O)c2n[nH]cc2NC(=O)c2ccccc2)CC1
O=C(Nc1c[nH]nc1C(=O)NC1CCNCC1)c1cc(-c2ccccc2)cs1
O=C1CC[C@H](NC(=O)c2n[nH]cc2NC(=O)c2c(F)cccc2F)CN1
O=C(NC1CCC(CO)CC1)c1n[nH]cc1NC(=O)c1c(F)cccc1F (stereo unspecified)
O=C(Nc1c[nH]nc1C(=O)NCC1CC1)c1ccc(N2CCOCC2)cc1Cl
COc1cccc(F)c1C(=O)Nc1c[nH]nc1C(=O)NC1CCN(C)CC1
O=C(Nc1c[nH]nc1C(=O)NCC1CC1)c1cccc2c1OCCO2
CN1CCC(NC(=O)Nc2c[nH]nc2C(=O)N[C@H]2CC[C@H](O)CC2)CC1
O=C(NC[C@H]1CC[C@H](NC(=O)c2n[nH]cc2NC(=O)c2c(F)cccc2F)CC1)OCc1ccccc1
CN1CCN([C@H]2CC[C@H](NC(=O)c3n[nH]cc3NC(=O)c3c(F)cccc3F)CC2)CC1
O=C(Nc1c[nH]nc1C(=O)N[C@H]1CC[C@H](O)CC1)c1cccc2c1OCCO2
CO[C@H]1CC[C@H](NC(=O)c2n[nH]cc2NC(=O)c2c(F)cccc2F)CC1
O=C(Nc1c[nH]nc1C(=O)NC1CCNCC1)c1cc(F)cc(F)c1
O=C(NC1CCC(N2CCSCC2)CC1)c1n[nH]cc1NC(=O)c1c(F)cccc1F (stereo unspecified)

molecular target: CDK2 (UniProt P24941); test: Enzyme Assay; remark: another data set of the same source

IC50, < 750 µM:
O=C(NCc1c(Cl)cccc1Cl)c1n[nH]cc1NC(=O)c1c(F)cccc1F
Cc1ccc(C)n1-c1c[nH]nc1C(=O)Nc1ccc(F)cc1
CN1CCN(c2ccc(CNC(=O)c3n[nH]cc3-c3ccccc3)cc2)CC1
CN1CCN(c2ccc(CNC(=O)c3n[nH]cc3-c3ccc(Cl)cc3Cl)cc2)CC1

IC50, < 20 µM:
O=C(Nc1cccc(CO)c1)c1n[nH]cc1NC(=O)c1c(F)cccc1F
O=C(Nc1ccc(F)cc1)c1n[nH]cc1Nc1ccccn1
O=C(Nc1c[nH]nc1C(=O)Nc1ccc(F)cc1)c1ccc2ccccc2n1
O=C(CS(=O)(=O)c1ccccc1)Nc1c[nH]nc1C(=O)Nc1ccc(F)cc1
CC(C)(C)OC(=O)N1CCCC(CNC(=O)c2n[nH]cc2NC(=O)c2c(F)cccc2F)C1 (stereo unspecified)
O=C(Nc1c[nH]nc1C(=O)Nc1ccc(F)cc1)c1ccc(CO)cc1
O=C(NC1CCOCC1)c1n[nH]cc1NC(=O)c1c(F)cccc1F
O=C(Nc1c[nH]nc1C(=O)Nc1ccc(F)cc1)c1ccco1
COc1cccc(C(=O)Nc2c[nH]nc2C(=O)Nc2ccc(F)cc2)c1F
Cc1sccc1C(=O)Nc1c[nH]nc1C(=O)Nc1ccc(F)cc1
O=C(Nc1c[nH]nc1C(=O)Nc1ccc(F)cc1)c1ccc([N+](=O)[O-])cc1
CCC(CC)Nc1c[nH]nc1C(=O)Nc1ccc(F)cc1
COc1ccc(NC(=O)c2n[nH]cc2-c2ccccc2)cn1
O=C(Nc1c[nH]nc1C(=O)Nc1ccc(F)cc1)c1ccc2cc[nH]c2c1
O=C(Nc1c[nH]nc1C(=O)Nc1ccc(F)cc1)c1cccc([N+](=O)[O-])c1
O=C(Nc1ccc(F)cc1)c1n[nH]cc1NC(=O)c1c[nH]c2ccccc12
O=C(Nc1c[nH]nc1C(=O)Nc1ccc(F)cc1)c1cc[nH]c1
Cc1ccoc1C(=O)Nc1c[nH]nc1C(=O)Nc1ccc(F)cc1
O=C(Nc1c[nH]nc1C(=O)Nc1ccc(F)cc1)c1ccccc1[N+](=O)[O-]
O=C(CCc1nnc[nH]1)Nc1c[nH]nc1C(=O)Nc1ccc(F)cc1
O=C(Nc1c[nH]nc1C(=O)Nc1ccc(F)cc1)c1ccccc1OCCN1CCCC1
O=C(NCc1c(F)cccc1F)c1n[nH]cc1NC(=O)c1c(F)cccc1F
O=C(NC1CCC(C(=O)O)CC1)c1n[nH]cc1NC(=O)c1c(F)cccc1F (stereo unspecified)
CN1CCN(CCC(=O)Nc2c[nH]nc2C(=O)Nc2ccc(F)cc2)CC1
COC(=O)c1cccc(NC(=O)c2n[nH]cc2NC(=O)c2c(F)cccc2F)c1N
Cn1cc(N)nc1C(=O)Nc1c[nH]nc1C(=O)Nc1ccc(F)cc1
O=C(CCN1CCOCC1)Nc1c[nH]nc1C(=O)Nc1ccc(F)cc1
COc1cccc(OC)c1C(=O)Nc1c[nH]nc1C(=O)Nc1ccc(F)cc1
CN1CCN(c2ccc(CNC(=O)c3n[nH]cc3-c3cccc(O)c3)cc2)CC1
COc1ccc(F)c(C(=O)Nc2c[nH]nc2C(=O)Nc2ccc(F)cc2)c1
O=C(NCc1ccccc1)c1n[nH]cc1NC(=O)c1c(F)cccc1F
CN1CCN(c2ccc(CNC(=O)c3n[nH]cc3NC(=O)c3c(F)cccc3F)cc2)CC1
O=C(Nc1c[nH]nc1C(=O)Nc1ccc(F)cc1)c1ccoc1
O=C(Nc1cc(F)ccc1OCCN1CCCC1)c1n[nH]cc1NC(=O)c1c(F)cccc1F
Cc1ccc(C(=O)Nc2c[nH]nc2C(=O)Nc2ccc(F)cc2)cc1
O=C(Nc1cccc(CN2CCOCC2)c1)c1n[nH]cc1NC(=O)c1c(F)cccc1F
O=C(Nc1ccc(F)cc1)c1n[nH]cc1NC1CCCCC1
CN1CCC(NC(=O)c2n[nH]cc2NC(=O)c2c(F)cccc2F)CC1
O=C(Nc1c[nH]nc1C(=O)Nc1ccc(F)cc1)c1ccccn1
Cc1onc(-c2ccccc2)c1C(=O)Nc1c[nH]nc1C(=O)Nc1ccc(F)cc1
O=C(Nc1c[nH]nc1C(=O)Nc1ccc(F)cc1)c1ccc(F)cc1
COc1cccc(C(=O)Nc2c[nH]nc2C(=O)Nc2ccc(F)cc2)c1
CC(C)(C)C(=O)Nc1c[nH]nc1C(=O)Nc1ccc(F)cc1
Cc1ccccc1C(=O)Nc1c[nH]nc1C(=O)Nc1ccc(F)cc1
O=C(Nc1c[nH]nc1C(=O)Nc1ccc(F)cc1)c1cccc(F)c1
O=C(CCN1CCCCC1)Nc1c[nH]nc1C(=O)Nc1ccc(F)cc1
Cc1nc[nH]c1-c1c[nH]nc1C(=O)Nc1ccc(F)cc1
O=C1CCC(C(=O)Nc2c[nH]nc2C(=O)Nc2ccc(F)cc2)N1 (stereo unspecified)
CC(CO)Nc1c[nH]nc1C(=O)Nc1ccc(F)cc1 (stereo unspecified)
O=C(CCO)Nc1c[nH]nc1C(=O)Nc1ccc(F)cc1
O=C(NC1CCCC1)c1n[nH]cc1NC(=O)c1c(F)cccc1F
